The subject of experiment [1] is collagen 1A. Put plainly: Induction of collagen 1A. In kind it is cell-based. The following applies: for fold induction at 10 µg/mL: final dose 10 μg/ml; for fold induction at 50 µg/mL: final dose 50 μg/ml; for fold induction at 100 µg/mL: final dose 100 μg/ml; for Rating (Collagen 1A): second rating in cell. On the procedure: (§1) Higher elastin and collagen activity is indicative of anti-wrinkling or anti-aging effects. Activation of the antioxidant response element (ARE) pathway was also evaluated. The NF-E2-related factor (Nrf2) is a critical transcription factor in oxidative stress signaling. Nrf2 binds to the ARE and serves as a master regulator in cellular defense pathways. The ARE pathway mediates the transcriptional induction of a battery of genes that help to protect the cells against oxidative damage. Activation of the ARE promoter leads to more endogenous antioxidants and cell detoxification.

Experiment [2] relates to elastin. Put plainly: Induction of elastin. In kind it is cell-based. The following applies: for fold induction at 10 µg/mL: final dose 10 μg/ml; for fold induction at 50 µg/mL: final dose 50 μg/ml; for fold induction at 100 µg/mL: final dose 100 μg/ml. The method, then: as §1
For experiment [3], the system named is antioxidant response element (ARE) pathway. In words: Activation of the antioxidant response element (ARE) pathway. Type of experiment: cell-based. The following applies: for fold induction at 10 µg/mL: final dose 10 μg/ml; for fold induction at 50 µg/mL: final dose 50 μg/ml; for fold induction at 100 µg/mL: final dose 100 μg/ml; for Rating (ARE): third rating in cell. The method, then:
as §1

Experiment [4] deals with nuclear factor kappa B (NF-κB) pathway. Put plainly: Cell-based assay of the nuclear factor kappa B (NF-κB) pathway. The conditions noted are these: for inhibition at 10 µg/mL / inhibition at 50 µg/mL / inhibition at 100 µg/mL: read-out: % inhibition of NF-κB; for Rating (inhibition of NF-κB): one rating per compound. On the procedure:
The effect of adding anti-aging and/or anti-wrinkling compounds to the skin care formulation of EXAMPLE 18 on nuclear factor kappa B (NF-κB) mediated-inflammation was evaluated.
A cell-based assay was performed to determine the effective of each of these compounds. The assay involved the effect of each compound on the nuclear factor kappa B (NF-κB) pathway. The inhibition of NF-κB is indicative of a protective effect against aging and wrinkling.

The test system of experiment [5] is UV-induced ROS. In words: Inhibition of the production of UV-induced reactive oxygen species (ROS). Type of experiment: cell-based. The conditions noted are these: read-out: % inhibition of UV-induced ROS. The method, then: The effect of the compounds of EXAMPLE 20 on inhibition of the production of reactive oxygen species (ROS), which can damage skin cells, was evaluated.

Each structure is given as a SMILES string. Read-outs that look alike come from different tables or passages of the source. Some results are limits rather than exact numbers.

As for `O=c1c(O)c(-c2ccc(O)cc2)oc2cc(O)ccc12` [HI-7, 3,7,4′-trihydroxyflavone], in experiment [1], the fold induction (usually the ratio of treated to control signal) at 10 µg/mL came out at 3; the fold induction at 50 µg/mL was less than 1.3; the fold induction at 100 µg/mL was less than 1.3; the “Rating (Collagen 1A)” value was “****, ****, **** (very high activity (>76%))”. Besides, in experiment [2], the fold induction at 10 µg/mL came to 3, the fold induction at 50 µg/mL was determined as 2 and the fold induction at 100 µg/mL is less than 1.3. For the same compound, in experiment [3], the fold induction at 10 µg/mL turned out to be 2; the fold induction at 50 µg/mL stood at 1.5; the fold induction at 100 µg/mL was less than 1.3; the “Rating (ARE)” value was “****, ****, **** (very high activity (>76%))”. Also, the inhibition – broadly, the drop in the measured response relative to a control, in per cent – at 10 µg/mL in experiment [4] (final dose 10 μg/ml) stood at 9%. Further, in experiment [4] (final dose 50 μg/ml), the inhibition at 50 µg/mL turned out to be 52%. Besides, in experiment [4] (final dose 100 μg/ml), the inhibition at 100 µg/mL was found to be 66%. For the same compound, the “Rating (inhibition of NF-κB)” value in experiment [4] is listed as “none”. Further, the inhibition at 10 µg/mL in experiment [5] (final dose 10 μg/ml) was approximately 50%.

For the compound `O=c1cc(-c2ccc(O)c(O)c2)oc2cc(O)cc(O)c12` [HI-11, luteolin], in experiment [1], the fold induction at 10 µg/mL was found to be 2; the fold induction at 50 µg/mL was less than 1.3; the fold induction at 100 µg/mL was less than 1.3; the “Rating (Collagen 1A)” value is on record as “****, ****, **** (very high activity (>76%))”. Further, in experiment [2], the fold induction at 10 µg/mL came out at 1.8, the fold induction at 50 µg/mL was less than 1.3 and the fold induction at 100 µg/mL is less than 1.3. In experiment [3], the fold induction at 10 µg/mL is 1.5; the fold induction at 50 µg/mL was found to be 5; the fold induction at 100 µg/mL turned out to be 2; the “Rating (ARE)” value is reported as “****, ****, **** (very high activity (>76%))”. For the same compound, the inhibition at 10 µg/mL in experiment [4] (final dose 10 μg/ml) was 54%. Further, in experiment [4] (final dose 50 μg/ml), the inhibition at 50 µg/mL is more than 90%. Also, in experiment [4] (final dose 100 μg/ml), the inhibition at 100 µg/mL was more than 90%. For the same compound, the “Rating (inhibition of NF-κB)” value in experiment [4] was “** (medium activity (31-55%))”. Moreover, the inhibition at 10 µg/mL in experiment [5] (final dose 10 μg/ml) was more than 70%.

Regarding `O=c1c(O)c(-c2ccc(O)c(O)c2)oc2cc(O)c(O)c(O)c12` [HI-9, quercetagetin], the “Rating (Collagen 1A)” value in experiment [1] is on record as “*** (high activity (56-75%))”. For the same compound, the “Rating (Elastin)” value in experiment [2] (first rating in cell) is listed as “none”. For the same compound, in experiment [3], the “Rating (ARE)” value is reported as “none”. For the same compound, the “% inhibition of NF-κB” value in experiment [4] (final dose 10 μg/ml) and in experiment [4] (final dose 50 μg/ml) was “none” in each case. Also, in experiment [4], the “Rating (inhibition of NF-κB)” value was “none and ** (medium activity (31-55%))”. The inhibition at 100 µg/mL in experiment [4] amounted to 20%. The inhibition at 10 µg/mL in experiment [5] was more than 70%.

`O=c1c(-c2ccc(O)c(O)c2)coc2cc(O)ccc12` [HI-1, 7,3,4′-trihydroxyisoflavone]: in experiment [1], the fold induction at 10 µg/mL is 1.5; the fold induction at 50 µg/mL stood at 3; the fold induction at 100 µg/mL is less than 1.3; the “Rating (Collagen 1A)” value is given as “**, **, N/A (medium activity (31-55%))”. Also, in experiment [2], the fold induction at 10 µg/mL worked out at 1.5, the fold induction at 50 µg/mL stood at 2 and the fold induction at 100 µg/mL was less than 1.3. In experiment [3], this compound registered a fold induction at 10 µg/mL of less than 1.3, a fold induction at 50 µg/mL of 3 and a fold induction at 100 µg/mL of 5. Also, in experiment [4] (final dose 10 μg/ml), the “% inhibition of NF-κB” value is given as “none”. Moreover, in experiment [4] (final dose 50 μg/ml), the inhibition at 50 µg/mL was 14%. For the same compound, the inhibition at 100 µg/mL in experiment [4] (final dose 100 μg/ml) worked out at 40%. Further, in experiment [4], the “Rating (inhibition of NF-κB)” value was “none”. In experiment [5] (final dose 10 μg/ml), the inhibition at 10 µg/mL is more than 70%.

Take `O=c1c(O)c(-c2cc(O)c(O)c(O)c2)oc2cc(O)cc(O)c12` [HI-8, myricetin]: in experiment [1], the fold induction at 10 µg/mL was less than 1.3, the fold induction at 50 µg/mL was less than 1.3, the fold induction at 100 µg/mL was less than 1.3 and the “Rating (Collagen 1A)” value was “none”. Further, in experiment [2], the fold induction at 10 µg/mL is less than 1.3, the fold induction at 50 µg/mL was found to be 3 and the fold induction at 100 µg/mL turned out to be 2.8. In addition, in experiment [3], the fold induction at 10 µg/mL is less than 1.3, the fold induction at 50 µg/mL is less than 1.3, the fold induction at 100 µg/mL is less than 1.3 and the “Rating (ARE)” value was “none”. Also, the “% inhibition of NF-κB” value in experiment [4] (final dose 10 μg/ml) is listed as “none”. Further, the inhibition at 50 µg/mL in experiment [4] (final dose 50 μg/ml) is 39%. Further, in experiment [4] (final dose 100 μg/ml), the inhibition at 100 µg/mL was found to be 44%. Besides, the “Rating (inhibition of NF-κB)” value in experiment [4] is on record as “none”. Also, in experiment [5] (final dose 10 μg/ml), the inhibition at 10 µg/mL was more than 70%.

As for `O=c1c(O)c(-c2ccc(O)cc2)oc2c(O)c(O)cc(O)c12` [HI-12, herbacetin], in experiment [1], the fold induction at 10 µg/mL was less than 1.3, the fold induction at 50 µg/mL was less than 1.3, the fold induction at 100 µg/mL is less than 1.3 and the “Rating (Collagen 1A)” value is given as “none”. For the same compound, in experiment [2], the fold induction at 10 µg/mL was determined as 2, the fold induction at 50 µg/mL was less than 1.3 and the fold induction at 100 µg/mL was found to be 2. Further, in experiment [3], the fold induction at 10 µg/mL is less than 1.3, the fold induction at 50 µg/mL is less than 1.3, the fold induction at 100 µg/mL was less than 1.3 and the “Rating (ARE)” value was “none”. In experiment [4] (final dose 10 μg/ml), the “% inhibition of NF-κB” value is listed as “none”. Besides, in experiment [4] (final dose 50 μg/ml), the “% inhibition of NF-κB” value is “none”. The inhibition at 100 µg/mL in experiment [4] (final dose 100 μg/ml) was 49%. Also, the “Rating (inhibition of NF-κB)” value in experiment [4] is “none”. Moreover, the inhibition at 10 µg/mL in experiment [5] (final dose 10 μg/ml) is approximately 50%.

Turning to `O=c1c(-c2ccc(O)cc2)coc2cc(O)c(O)cc12` [HI-4, 6,7,4′-trihydroxyisoflavone], in experiment [1], the fold induction at 10 µg/mL was 2; the fold induction at 50 µg/mL is less than 1.3; the fold induction at 100 µg/mL was less than 1.3; the “Rating (Collagen 1A)” value is listed as “****, ****, **** (very high activity (>76%))”. In experiment [2], the fold induction at 10 µg/mL amounted to 2, the fold induction at 50 µg/mL was 2 and the fold induction at 100 µg/mL is less than 1.3. In addition, in experiment [3], the fold induction at 10 µg/mL came out at 2; the fold induction at 50 µg/mL was less than 1.3; the fold induction at 100 µg/mL was less than 1.3; the “Rating (ARE)” value is “****, ****, **** (very high activity (>76%))”. Moreover, in experiment [4] (final dose 10 μg/ml), the “% inhibition of NF-κB” value is listed as “none”. For the same compound, the “% inhibition of NF-κB” value in experiment [4] (final dose 50 μg/ml) was “none”. The “% inhibition of NF-κB” value in experiment [4] (final dose 100 μg/ml) was “none”. Moreover, the “Rating (inhibition of NF-κB)” value in experiment [4] is recorded as “none”. Besides, the inhibition at 10 µg/mL in experiment [5] (final dose 10 μg/ml) is more than 70%.

For the compound `O=C1C[C@@H](c2ccc(O)cc2)Oc2cc(O)cc(O)c21` [HI-5, naringenin], in experiment [1], the fold induction at 10 µg/mL is less than 1.3, the fold induction at 50 µg/mL is less than 1.3, the fold induction at 100 µg/mL is 1.3 and the “Rating (Collagen 1A)” value was “* (low activity (20-30%))”. In experiment [2], the fold induction at 10 µg/mL is 1.5, the fold induction at 50 µg/mL was less than 1.3 and the fold induction at 100 µg/mL was found to be 1.5. In experiment [3], the fold induction at 10 µg/mL was 2, the fold induction at 50 µg/mL amounted to 2, the fold induction at 100 µg/mL worked out at 2 and the “Rating (ARE)” value is on record as “**** (very high activity (>76%))”. Besides, the “% inhibition of NF-κB” value in experiment [4] (final dose 10 μg/ml) was “none”. Moreover, the inhibition at 50 µg/mL in experiment [4] (final dose 50 μg/ml) amounted to 56%. In addition, the inhibition at 100 µg/mL in experiment [4] (final dose 100 μg/ml) came out at 62%. The “Rating (inhibition of NF-κB)” value in experiment [4] was “none”. Besides, the inhibition at 10 µg/mL in experiment [5] (final dose 10 μg/ml) is approximately 25%.

The record behind these values is patent US12233073B2, “Skin care formulations and skin cancer treatment” (Regents of the University of Minnesota, priority 2017, dated 2025).
